Source: patent US5030638A, “Method of antiviral enhancement” (priority 1990, dated 1991)
≈ marks a conversion by molar mass, not a printed value. Like-named read-outs stand apart in the source and are kept apart here. Blank lines part the entries; values can stand above or below the compound they belong to.

Legend:
[1] = tested on: HIV; settings: cited from earlier work
[2] = target: almond β-glucosidase; assay: Beta-glucosidase inhibition assay, pH 7.4; format: biochemical; settings: for IC50 / Enzyme Inhibition, Almond β-Glucosidase pH 7.4: pH 7.4; for IC50: read-out: Enzyme Inhibition-IC50, Almond β-Glucosidase pH 7.4; for Inhibition Index (first, head is drawing 3) / Inhibition Index (second, head is drawing 4): ratio of IC50 values; for Inhibition Index (first, head is drawing 3): numerically almond pH 4.8 / almond pH 7.4; for Inhibition Index (second, head is drawing 4): numerically yeast α pH 7.4 / almond β pH 7.4
Description: (§1) Yeast alpha-glucosidase and almond beta-glucosidase activities were measured by a modification of the method of Evans, et al., Phytochemistry 22, 768-770 (1983). The modifications included 1) assay of activities at pH 7.4 in HEPES (N-2-hydroxyethylpiperazine-N'-2-ethanesulfonic acid) buffer, 2) measurement in 96 well microtiter plates and 3) inclusion of 10% DMSO in control and test samples.
(§2) The release of p-nitrophenol from the substrate p-nitrophenylglycoside was measured spectrophotometrically in the presence and absence of test compound. Each assay included a known inhibitor of the enzyme as a standard.
To 100 μl 50 mM HEPES buffer, pH 7.4, in a microtiter plate, add 20 μl test compound in DMSO (DMSO alone in control), 40 μl (0.136 units) beta-glucosidase (Sigma) in HEPES buffer and pre-incubate at room temperature for 15 minutes. Add 40 μl 1.25 mM p-nitrophenyl-beta-D-glucopyranoside in HEPES buffer, as substrate and monitor absorbance change at 405 nm in a Biotek EIA Autoreader. Absorption change was measured at 15 to 25 minutes (reaction is linear for at least 30 minutes). Each sample was tested in triplicate. […] Castanospermine was used as standard inhibitor.

[3] = target: almond β-glucosidase; assay: Beta-glucosidase inhibition assay, pH 4.8; format: biochemical; settings: for IC50: read-out: Enzyme Inhibition-IC50, Almond β-Glucosidase pH 4.8
Description: as §1, §2
To 100 μl 50 mM sodium citrate buffer, pH 4.8, in a microtiter plate, add 15 μl test compound in DMSO (DMSO alone in control), 20 μl (0.017 units) beta-glucosidase (Sigma) in citrate buffer and pre-incubate at room temperature for 15 minutes. Add 25 μl 2.50 mM p-nitrophenyl-beta-D-glucopyranside in citrate buffer, as substrate. […] Add 50 μl 0.4M NaOH. Read absorption change at 405 nm in a Biotek EIA Autoreader. Each sample was tested in triplicate. […] Castanospermine was used as standard inhibitor.

[4] = target: T1, yeast α-glucosidase (Saccharomyces cerevisiae, UniProt P53341); assay: Alpha-glucosidase inhibition assay, pH 7.4; format: biochemical
T1 construct: purchased Sigma
T1 sequence (P53341 whole entry): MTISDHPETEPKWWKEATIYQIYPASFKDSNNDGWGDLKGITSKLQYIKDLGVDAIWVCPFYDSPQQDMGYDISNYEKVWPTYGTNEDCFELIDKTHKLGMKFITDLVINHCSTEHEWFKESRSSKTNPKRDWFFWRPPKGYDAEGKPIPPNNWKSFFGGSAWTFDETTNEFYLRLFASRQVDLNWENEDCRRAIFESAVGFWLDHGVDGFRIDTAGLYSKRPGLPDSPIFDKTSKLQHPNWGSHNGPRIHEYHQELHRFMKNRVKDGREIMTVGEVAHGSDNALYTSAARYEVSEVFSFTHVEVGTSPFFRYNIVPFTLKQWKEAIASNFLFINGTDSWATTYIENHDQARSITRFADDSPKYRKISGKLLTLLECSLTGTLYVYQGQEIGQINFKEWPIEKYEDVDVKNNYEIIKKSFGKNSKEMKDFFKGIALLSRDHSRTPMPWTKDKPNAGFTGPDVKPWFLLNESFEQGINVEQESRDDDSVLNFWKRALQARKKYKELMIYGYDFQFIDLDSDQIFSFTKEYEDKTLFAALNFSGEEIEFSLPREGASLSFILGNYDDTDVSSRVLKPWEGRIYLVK
Description: as §1, §2
To 100 μl 50 mM HEPES buffer, pH 7.4, in a microtiter plate, add 20 μl test compound in DMSO (DMSO alone in control), 40 μl (0.013 units) yeast alpha-glucosidase (Sigma) in HEPES buffer and pre-incubate at room temperature for 15 minutes. Add 40 μl 1.25 mM p-nitrophenyl-alpha-D-glucopyranoside (Sigma) in HEPES buffer, as substrate, and monitor absorbance change at 405 nm in Biotek EIA Auto-reader. Absorption change was measured at 15 to 25 minutes (reaction was linear for at least 30 minutes). Each sample was tested in triplicate. […] Deoxynojirimycin was used as standard inhibitor.

[5] = tested on: HIV-1, strain HTLV-IIIB; assay: Reduction of cytopathogenic effect (CPE) in HIV-1 infected CEM cells, MTT assay; format: cell-based
Description: These tests involved plating of susceptible human host cells which are syncytium-sensitive with and without virus in microculture plates, adding various concentrations of the test compound, incubating the plates for 9 days (during which time infected, non-drug treated control cells are largely or totally destroyed by the virus), and then determining the number of remaining viable cells using a colorimetric endpoint.
Tissue culture plates were incubated at 37° C. in a humidified, 5% CO2 atmosphere and observed microscopically for toxicity and/or cytopathogenic effect (CPE). At 2 and 6 days after infection, fresh dilutions of each test article were prepared from the frozen stock, and a 20 μl volume of each dilution (prepared as a 10× concentration was added to the appropriate wells of both infected and uninfected cells.
On the 9th day post-infection, the cells in each well were resuspended and a 100 μl sample of each cell suspension was removed for use in an MTT assay. A 20 μl volume of a 5 mg/ml solution of 3-(4,5-dimethylthiazol-2-yl)-2,5-diphenyltetrazolium bromide (MTT) was added to each 100 μl cell suspension, and the cells were incubated at 37° C. in 5% CO2 for 4 hours. […] A 100 μl volume of a solution of 10% sodium dodecyl sulfate in 0.01N hydrochloric acid wa added to each sample, and the samples were incubated overnight. The absorbance at 590 nm was determined for each sample using a Molecular Devices Vmax microplate reader. This assay detects drug-induced suppression of viral CPE, as well as drug cytotoxicity, by measuring the generation of MTT-formazan by surviving cells.
Assays were done in 96-well tissue culture plates. CEM cells were treated with polybrene at a concentration of 2 μg/ml, and an 80 μl volume of cells (1×10^4 cells) was dispensed into each well. A 100 μl volume of each test article dilution (prepared as a 2× concentration) was added to 5 wells of cells, and the cells were incubated at 37° C. for 1 hour. A frozen culture of HIV-1, strain HTLV-IIIB, was diluted in culture medium to a concentration of 5×10^4 TCID50 per ml, and a 20 μl volume (containing 10^3 TCID50 of virus) was added to 3 of the wells for each test article concentration. […] A 20 μl volume of normal culture medium was added to the remaining wells to allow evaluation of cytotoxicity. Each plate contained 6 wells of untreated, uninfected, cell control samples and 6 wells of untreated, infected, virus control samples. Dideoxycytidine (DDC) and dideoxyadenosine (DDA) were included as positive control compounds.

[6] = tested on: visna virus; assay: Plaque reduction assay, inhibition of visna virus in vitro; format: cell-based; settings: Visna-maedi virus, read-out: Antiviral Activity (plaque reduction)
Description: (§3) Sheep choroid plexus(SCP) cells were obtained from American Type Culture Collection (ATCC) catalogue number CRL 1700 and were routinely passaged in vitro in Dulbecco's Modified Eagles (DME) medium supplemented with 20% fetal bovine serum (FBS). SCP cells were passaged once per week at a 1:2 or 1:3 split ratio. Visna was titrated by plaque assay in six-well plates. Virus pools were stored at -70° C.
(§4) SCP cells were cultured in 6-well plates to confluence. Wells were washed two times with serum free Minimal Essential Medium (MEM) to remove FBS. 0.2 ml of virus was added per well in MEM supplemented with 4 mM glutamine and gentamycin. After 1 hour adsorption, the virus was aspirated from each well. The appropriate concentration of each compound in 5 ml of Medium 199 (M-199) supplemented with 2% lamb serum, 4 mM glutamine, 0.5% agarose and gentamycin was added to each well. […] To terminate the test: cultures were fixed in 10% formalin, the agar removed, the monolayers stained with 1% crystal violet and plaques counted. Each compound concentration was run in triplicate. […] 0 is no toxicity observed while 4 is total lysing of the cell monolayer.

[7] = tested on: Sheep choroid plexus (SCP) cells; assay: Toxicity in control wells (without virus) of the plaque reduction assay; format: cell-based; set-up: key: 0: no toxicity; 4: total cell lysates; settings: graded 0 to 4
Description: as §3, §4
Toxicity graded on 0 to 4 scale 0 = no toxicity, 4 = total cell lysates

[8] = target: glucosidase I; settings: Schweden et al.; compared to N-methyl- and N-butyl-derivatives; cited from earlier work

SMILES: O[C@H]1[C@H](O)[C@@H](O)CN2CC[C@H](O)[C@H]12 [castanospermine]
- HIV inhibitory / antiviral activity ([1]; literature): inhibition of the cytopathic effect (CPE)
- reduction in virion infectivity ([1]; literature): only a modest reduction in virion infectivity

SMILES: O[C@@H]1[C@@H](O)[C@@H](O)CN2CC[C@H](O)[C@@H]12 [L-1,6-diepicastanospermine]
- HIV inhibitory / antiviral activity ([1]; literature): neither the epimer L-1,6-diepicastanospermine nor the stereoisomer of castanospermine, L-6-epicastanospermine, were found to be inhibitory

- IC50 [2]: 15 µM
- Inhibition Index (first, head is drawing 3) [2]: 28.2
- Inhibition Index (second, head is drawing 4) [2]: 29.5
- IC50 [3]: 423 µM
- IC50 ([4]; pH 7.4, read-out: Enzyme Inhibition-IC50, Yeast α-Glucosidase pH 7.4): 444 µM
SMILES: CCCCCN1C[C@H](O)[C@@H](O)[C@H](O)[C@H]1CO [Example 1, 1,5-(Pentylimino)-1,5-dideoxy-D-glucitol]

SMILES: Cc1cn([C@H]2C[C@H](N=[N+]=[N-])[C@@H](CO)O2)c(=O)[nH]c1=O [AZT, 3'-azido-3'-deoxythymidine]
- HIV inhibitory / antiviral activity ([1]; literature): inhibit replication of the virus in vitro

- IC50 ([5]; Human immunodeficiency virus 1, IIIB, CCRF-CEM, 216 h, HIV-1, CEM cells, reduction of CPE, read-out: ID50 (median inhibitory dose)): 0.01 µg/mL (≈ 0.0473 µM)
SMILES: Nc1ccn([C@H]2CC[C@@H](CO)O2)c(=O)n1 [DDC, Dideoxycytidine, reference compound]
- inhibition at 0.01 µg/mL ([5]; Human immunodeficiency virus 1, IIIB, CCRF-CEM, 216 h, 0.01 μg/ml, read-out: Percent Reduction of CPE): 41.5%
- inhibition at 0.032 µg/mL ([5]; Human immunodeficiency virus 1, IIIB, CCRF-CEM, 216 h, 0.032 μg/ml, read-out: Percent Reduction of CPE): 73.9%

- Enzyme Inhibition, Almond β-Glucosidase pH 7.4 ([2]; at 10 μM): 31%
- Enzyme Inhibition, Almond β-Glucosidase pH 4.8 ([3]; at 10 μM): 22%
- inhibition at 10 µM ([4]; pH 7.4, at 10 μM, read-out: Enzyme Inhibition, Yeast α-Glucosidase pH 7.4): 0%
SMILES: CCCCCCCCCCCCCCN1C[C@H](O)[C@@H](O)[C@H](O)[C@H]1CO [Example 4, 1,5-(Tetradecylimino)-1,5-dideoxy-D-glucitol]
- inhibition at 10 µM ([6]; 10 μM): 84%
- inhibition at 100 µM ([6]; 0.1 mM): 100%
- inhibition at 1000 µM ([6]; 1 mM): 100%
- Toxicity ([7]; 10 μM): 1
- Toxicity ([7]; 0.1 mM): 4
- Toxicity ([7]; 1 mM): 4

SMILES: O[C@@H]1[C@@H](O)[C@@H](O)CN2CC[C@@H](O)[C@@H]12 [L-6-epicastanospermine]
- HIV inhibitory / antiviral activity ([1]; literature): neither the epimer L-1,6-diepicastanospermine nor the stereoisomer of castanospermine, L-6-epicastanospermine, were found to be inhibitory

SMILES: CN1C[C@H](O)[C@@H](O)[C@H](O)[C@H]1CO [Methyl, N-methyl-deoxynojirimycin, reference compound]
- IC50 [2]: 102 µM
- Inhibition Index (first, head is drawing 3) [2]: 3.5
- Inhibition Index (second, head is drawing 4) [2]: 0.53
- IC50 [3]: 366 µM
- IC50 [4]: 54 µM
- HIV inhibitory / antiviral activity ([1]; literature): significant antiviral activity
- HIV inhibitory / antiviral activity ([1]; literature, listed as N-methyl derivative of deoxynojirimycin (DNJ)): activity against HIV

SMILES: CCN1C[C@H](O)[C@@H](O)[C@H](O)[C@H]1CO [Ethyl, reference compound]
- Enzyme Inhibition, Almond β-Glucosidase pH 7.4 ([2]; at 1 mM): 67%
- Inhibition Index (first, head is drawing 3) [2]: ~ 1
- Inhibition Index (second, head is drawing 4) [2]: ~ 1
- IC50 [3]: ~1000 µM
- inhibition at 1000 µM ([4]; pH 7.4, read-out: Enzyme Inhibition, Yeast α-Glucosidase pH 7.4): 51%
- reduction of the yield of infectious HIV ([1]; Karpas et al.): three

SMILES: CCCCCCCCCCN1C[C@H](O)[C@@H](O)[C@H](O)[C@H]1CO [N-decyl-derivatives, reference compound]
- Ki, glucosidase I [8]: greater Ki values than the N-methyl- and N-butyl-derivatives

SMILES: O=c1[nH]cnc2c1ncn2[C@H]1CC[C@@H](CO)O1 [DDI, reference compound]
- Percent Reduction of CPE ([5]; 1.0 μg/ml, 12960 min): 28.3%
- Percent Reduction of CPE ([5]; 3.2 μg/ml, 12960 min): 49.6%
- Percent Reduction of CPE ([5]; 10 μg/ml, 12960 min): 75.6%
- ID50 (median inhibitory dose) ([5]; HIV-1, CEM cells, reduction of CPE, 12960 min): 3.0 µg/mL (≈ 12.7 µM)
